Laboratory results published in ChEMBL document CHEMBL4513101, “Naegleria gruberi Pathogen Box compounds screening” (2021).
Calls of active or inactive are those of the source. No stated cut-off is given here; in the data, active = inhibition of 80% or more and inactive = less.

Test system: Naegleria gruberi
Assay: microbe, parasite or virus in culture
Assay type: functional
Conditions: NEG-M, CONC 10 uM
Description: Growth inhibiting activity of Naegleria gruberi in vitro

Row | Structure (SMILES) | inhibition at 10 µM
1 | CN(C)CCNC(=O)N1CCCN(c2ncnc3cc(-c4ccccc4)sc23)CC1 | 29.4% (not active)
2 | O=C(Nc1nc(-c2ccccn2)cs1)c1cncn1-c1ccccc1 | 45.9% (not active)
3 | COc1ccc(C2=NCCN2)cc1-c1cn(-c2cccc(C3=NCCN3)c2)nn1 | 21.7% (not active)
4 | COc1cc(OC)cc(C(=O)NCC2Cc3cc(Cl)cc(-c4ccncc4)c3O2)c1 (stereo unspecified) | 20.9% (not active)
5 | O=C(NC1CC1)c1ccc(N2CCC(Cc3ccccc3)CC2)nc1 | 59.1% (not active)
6 | c1ccc(Oc2ccc(-c3cncc(-c4ccc5[nH]ccc5c4)n3)cc2)cc1 | 11.4% (not active)
7 | Clc1ccc(CCNc2cc(-c3ccccc3)nc3ncnn23)cc1 | 44.5% (not active)
8 | CCc1ccccc1-n1c(C)cn2c3c(=O)n(C(C(=O)OC)C(C)C)c(=O)n(C)c3nc12 (stereo unspecified) | 4.4% (not active)
9 | N#CCN(CCCCN1CCN(c2ccc(F)cc2)CC1)C(=O)OCc1ccccc1 | 21.3% (not active)
10 | COc1ccc(OC)c(NCc2ccc3nc(N)nc(N)c3c2Cl)c1 | 33.6% (not active)
11 | CCc1nn(C)c(C(=O)NCc2ccc(Oc3ccc(C)cc3)cc2)c1Cl [TOLFENPYRAD] | 93.3% (active)
12 | O=C(Nc1ccccc1)c1ccc(-c2cc3ccncc3cc2OC2CCNCC2)s1 | 12.6% (not active)
13 | C[C@]1(O)C[C@@H](c2nc(-c3ccc4ccc(-c5ccccc5)nc4c3)c3c(N)nccn32)C1 [LINSITINIB] | 59.4% (not active)
14 | O=C([C@@H](c1ccc(Cl)cc1)c1cccnc1)N1CCN(c2ccc(C(F)(F)F)cc2)CC1 | 75.6% (not active)
15 | CCCn1c(NC(=O)c2ccc3ccccc3n2)nc2ccccc21 | 22.6% (not active)
16 | O=C(Nc1ccc(N2CCNCC2)cc1)c1ccn2ncc(-c3cccc(Cl)c3)c2n1 | 18.8% (not active)
17 | Nc1ncnc2[nH]nc(Cc3cccc4ccccc34)c12 | 24% (not active)
18 | CCN(CC)CCCN1CCN(C(=O)c2cccc(-c3noc(C(F)(F)F)n3)c2)CC1 | 13% (not active)
19 | O=C(c1ccco1)N(CCCn1ccnc1)c1nc2c(Cl)cccc2s1 | 68.6% (not active)
20 | CS(=O)(=O)Cc1nc2ccccc2oc1=O | 38.8% (not active)
21 | Cc1ccc(S(=O)(=O)n2cc(-c3ccnc(N)c3)c3cc(Br)cnc32)cc1 | 53.9% (not active)
22 | O=C(NCCc1c[nH]c2ccccc12)c1cc2ccccc2oc1=O | 33.7% (not active)

Row | Structure (SMILES) | inhibition at 10 µM
23 | CC(=O)N(CCN(C(=O)c1ccc(F)cc1)c1ccccc1)c1ccccc1 | 21.3% (not active)
24 | CS(=O)(=O)N1CCC(Cn2nc(Cc3cccc4ccccc34)c3c(N)ncnc32)CC1 | 30.6% (not active)
25 | COc1ccc(Oc2ccc([C@@H](C)N(C)c3ncc4c(N)nc(N)nc4n3)cc2)cc1 | 25.6% (not active)
26 | CC1CCCCN1C(=O)NCCc1coc(-c2ccc(F)cc2)n1 (stereo unspecified) | 42.6% (not active)
27 | Cc1cc(NCC(C)C)c2[nH]nc(-c3ccccc3)c2n1 | 25.8% (not active)
28 | CC1CS(=O)(=O)CCN1/N=C/c1ccc([N+](=O)[O-])o1 (stereo unspecified) [NIFURTIMOX] | 11.1% (not active)
29 | COc1ccc(Cn2cnc3c(-c4ccco4)nc(Cl)nc32)cc1 | 36.9% (not active)
30 | CC1CCCN(C(=O)C(C)Nc2cc(Cl)ccc2N2CCOCC2)C1 (stereo unspecified) | 43.8% (not active)
31 | COc1ccc(-c2nn(C(C)C)c3ncnc(N)c23)cc1OC | 49.5% (not active)
32 | CCN(CC)S(=O)(=O)c1ccc(Cl)c(C(=O)Nc2ccc3nc(C)sc3c2)c1 | 84.7% (active)
33 | COc1cccc(-c2cc3c(Nc4cccnc4)nccc3[nH]2)c1 | 10% (not active)
34 | Cc1cc(C)n2nc(C(=O)Nc3cc(C(F)(F)F)ccc3N3CCOCC3)nc2n1 | 38% (not active)
35 | O=C(NCCc1ccccc1)c1cc(-c2cccnc2)cnc1NCC1CC1 | 37.7% (not active)
36 | CCC(Sc1nc2ccccc2o1)C(=O)Nc1nccs1 (stereo unspecified) | 44.3% (not active)
37 | COC(=O)C1=C(C)NC(C)=C(C(=O)OC(C)C)C1c1cccc2nonc12 (stereo unspecified) [ISRADIPINE] | 48.7% (not active)
38 | CC1=Nc2ccc(Cl)cc2C(c2ccccc2)N1CCNC(=O)CN(C)C (stereo unspecified) | 4.7% (not active)
39 | COc1cc(NC(=O)Cc2nn(C)c(=O)c3ccccc23)ccc1Cl | 90.7% (active)
40 | COc1ccc(C2CC(c3cccs3)=NN2C(=O)c2ccco2)cc1OC (stereo unspecified) | 34.6% (not active)
41 | O=C(NCCc1ccn(-c2ccccc2)n1)C1CCCCC1 | 6.2% (not active)
42 | CC(C)(C)C(=O)N(CCCCCCN1C[C@H](O)[C@@H](O)[C@H](O)[C@H]1CO)C1CCCCCC1 | 0.1% (not active)
43 | Clc1cccc(C(c2ccc(CN3CCNCC3)cc2)n2ccnc2)c1 (stereo unspecified) | 20.3% (not active)
44 | CC1(C)OB(O)c2ccc(C3=NOC(c4cc(Cl)c(F)c(Cl)c4)(C(F)(F)F)C3)cc21 (stereo unspecified) | 62.5% (not active)

Row | Structure (SMILES) | inhibition at 10 µM
45 | COc1cncc(-c2cncc(N3CCN(c4ccncc4)CC3)n2)c1 | 26.8% (not active)
46 | c1ccc(Oc2ccc(-c3cc(C4CCOCC4)[nH]n3)cc2)cc1 | 34.2% (not active)
47 | CCOc1ccc2cc(-c3nn(CC4CCN(C)CC4)c4ncnc(N)c34)ccc2c1 | 28% (not active)
48 | Cn1ncc2c(N3CCOCC3)nc(NCCc3c[nH]c4ccccc34)nc21 [TDR79432] | 45.9% (not active)
49 | CCS(=O)(=O)N(Cc1ccco1)Cc1cc2ccc(C)cc2nc1O | 0% (not active)
50 | Cc1noc(C)c1C(=O)N1CCCC(c2[nH]c3c(C)cccc3c2-c2ccncc2)C1 (stereo unspecified) | 27.1% (not active)
51 | CNc1snc(C)c1C(=O)NCCOc1ccc(OC)cc1 | 40.5% (not active)
52 | C[C@@H]1[C@H](O)[C@@H](C)/C=C/C=C/C=C/C=C/C=C/C=C/C=C/[C@H](O[C@@H]2O[C@H](C)[C@@H](O)[C@H](N)[C@@H]2O)C[C@@H]2O[C@](O)(C[C@@H](O)C[C@@H](O)[C@H](O)CC[C@@H](O)C[C@@H](O)CC(=O)O[C@H]1C)C[C@H](O)[C@H]2C(=O)O [AMPHOTERICIN B] | 2.4% (not active)
53 | CC(C)c1ncc(-c2ccncc2)c([C@H]2CC[C@H](CNC(=O)c3cccnc3)CC2)n1 | 32.5% (not active)
54 | Cc1ccc(-c2cc(C(=O)Nc3cccnc3)c3cc(Br)ccc3n2)cc1 | 16.8% (not active)
55 | OC[C@H]1O[C@@H](n2c3ccc(Cl)cc3c3c(-c4cc5ccccc5o4)ncnc32)C(O)[C@H]1O (stereo partly specified) | 17.3% (not active)
56 | CCN(CC)C(=O)N1CCN(C)CC1 [DIETHYLCARBAMAZINE] | 19% (not active)
57 | Cc1cc(OCC(=O)Nc2ccc(C(C)C)cc2)n(C)c(=O)c1C#N | 18.6% (not active)
58 | N#Cc1ccc(-c2cnc(N)c(-c3ccc(C(N)=O)cc3)n2)cc1 | 21.8% (not active)
59 | Cc1ccc2[nH]c(C3CCCNC3)c(-c3ccncc3)c2c1 (stereo unspecified) | 9.5% (not active)
60 | COc1cc(Br)cc2cc(C(=O)Nc3cccc(C(F)(F)F)c3)c(=O)oc12 | 21% (not active)
61 | COC(=O)c1c(NC(=O)c2cc3ccccc3oc2=O)sc2c1CCN(Cc1ccccc1)C2 | 17.2% (not active)
62 | CC(c1cc(Cl)cc(Cl)c1)N(C)c1ncc2c(N)nc(N)nc2n1 (stereo unspecified) | 11% (not active)
63 | Nc1nc2cc(-c3cncc(Oc4ccc(F)cc4)c3)ccc2[nH]1 | 35.5% (not active)
64 | O=C(c1ccc(NCCO)cc1)C1C[C@H]1c1ccc(Cl)cc1 (stereo partly specified) | 28.7% (not active)
65 | Cc1cc2nc(NC(=O)C(C)(C)C)nc(Cl)c2n1Cc1ccc(Cl)cc1 | 43% (not active)
66 | Nc1nccc2ccc(-c3ccc4nccn4c3)cc12 | 8.2% (not active)

Row | Structure (SMILES) | inhibition at 10 µM
67 | CC(C)(C)c1ccc(N[C@@H]2CCCC[C@H]2NC(=O)c2ccco2)cc1 | 8.8% (not active)
68 | CC(C)C(Oc1cccc2ccccc12)C(=O)O (stereo unspecified) | 1.3% (not active)
69 | CC(C)C(NC(=O)Cc1cccc2ccccc12)C(=O)Nc1cccc(C#N)c1 (stereo unspecified) | 37.5% (not active)
70 | CC1=Nc2ccc(Cl)cc2C(O)(c2ccc(C)cc2)N1CCN1CCCCC1 (stereo unspecified) | 31.1% (not active)
71 | CN1CCCN(C(c2ccccc2)c2ccc(Cl)cc2)CC1 (stereo unspecified) [HOMOCHLORCYCLIZINE] | 11.6% (not active)
72 | Cc1ccc(C(=O)Nc2ccc(S(=O)(=O)O)c3cc(S(=O)(=O)O)cc(S(=O)(=O)O)c23)cc1NC(=O)c1cccc(NC(=O)Nc2cccc(C(=O)Nc3cc(C(=O)Nc4ccc(S(=O)(=O)O)c5cc(S(=O)(=O)O)cc(S(=O)(=O)O)c45)ccc3C)c2)c1 [SURAMIN] | 32% (not active)
73 | Cc1cc(Nc2ccncc2)n2nc(C)c(-c3ccccc3Cl)c2n1 | 27.7% (not active)
74 | COc1cc(C2=NCCN2)ccc1-n1cc(-c2cccc(C3=NCCN3)c2)nn1 | 16.2% (not active)
75 | Cc1ccc2[nH]c3c(NCCN(C)C)ncnc3c2c1 | 23.7% (not active)
76 | C[C@]1(COc2ccc(N3CCC(Oc4ccc(OC(F)(F)F)cc4)CC3)cc2)Cn2cc([N+](=O)[O-])nc2O1 | 94.1% (active)
77 | CC(C)n1ncc2c(C(=O)NCC(c3cccs3)N3CCOCC3)cc(-c3ccccc3)nc21 (stereo unspecified) | 48.6% (not active)
78 | O=C(Nc1nnc(S)s1)c1cc(Br)ccc1Cl | 11.5% (not active)
79 | COc1ccc(OC(C)C(=O)Nc2ccc(Cl)cc2C)cc1 (stereo unspecified) | 34% (not active)
80 | COc1ccc(-c2cnc3ccc(N4CCCC4)nn23)cc1OC | 51.2% (not active)
81 | CC(=O)N1CCc2cc3nc(C)cc(C)c3cc21 | 19.9% (not active)
82 | Nc1ncnc2c1ncn2C[C@@H](O)[C@@H](O)C(=O)O [ERITADENINE] | 36.3% (not active)
83 | O=C(NC1CC1)c1ccc(N2CCOc3ccc(Cl)cc32)s1 | 27.6% (not active)
84 | COc1cc(C(F)(F)F)nc2ccc(C)c(N)c12 | 2.1% (not active)
85 | CC(=O)Nc1ccc(NC(=O)c2cc(-c3cc(Cl)ccc3O)n[nH]2)cc1 | 8.8% (not active)
86 | Cc1nc2ccccn2c1C(=O)NCc1ccc(Cl)cc1 | 37.8% (not active)
